{
  "source": "patent US20130331345A1",
  "about": "“PUERARIN HYDRATES, PREPARATION METHODS AND USES THEREOF” (priority 2010, published 2013)",
  "key": {"[1]": {"assay": "Sticking in direct tableting of powder", "type": "physicochemical", "details": "tableting 200 mg of powder; printed '1-3 times or higher'", "experimental": "In addition, the puerarin hydrate of the present invention overcomes the drawback of deliquescent property of anhydrous puerarin, so that it is not necessary to isolate air to prevent adhesion, and has good sliding property, and the manipuility for manufacturing preparations is improved. Anhydrous puerarin has sticking phenomenon when its powder is used for direct tableting. When tableting 200 mg of powder, anhydrous puerarin has a sticking amount 1-3 times or higher than that of puerarin monohydrate."}, "[2]": {"assay": "Hygroscopicity test according to the Pharmacopoeia of the People's Republic of China", "type": "physicochemical", "details": "25° C., relative humidity 75%, 48 h", "experimental": "(§1) The sample of the puerarin hydrate above (prepared by method of Example 1) and anhydrous puerarin (anhydrous puerarin was prepared by: drying the hydrate as prepared in Example 1 at 90-105° C. in the presence of phosphorus pentoxide under vacuum for 24-72 hours or more to obtain an anhydrous puerarin, and the water content of anhydrous puerarin was usually lower than 1.0% as measured by Karl Fisher method) were sealed in penicillin bottles to perform accelerated stability test (chromatography conditions: chromatography column: C18 (150 mm×4.6 mm, 5 μm); mobile phase: 0.1% citric acid solution-methanol (75:25); flow rate: 1 ml/min; temperature: room temperature; detection wavelength: 250 nm). […] Hygroscopicity test was performed according to the Pharmacopoeia of the People's Republic of China: about 5 g of anhydrous puerarin and the crystalline hydrate of the present invention were taken, placed in dry watch glasses with constant weight, weighed precisely. Samples were taken separately at 0 h and 48 h of the test at 25° C. and relative humidity of 75%, and hygroscopicity weight gain percentages were calculated."}, "[3]": {"assay": "Accelerated stability test (40° C., RH75%), sealed in penicillin bottles", "type": "physicochemical", "details": "for Marked content (%) / Property / Related substance (%): accelerated, 40° C.", "experimental": "as §1"}, "[4]": {"test_system": "chronic ocular hypertension", "assay": "Effects on chronic ocular hypertension of rabbits (dexamethasone model)", "type": "in vivo", "details": "within 24 hours, puerarin hydrate 1% (W/V), betaxolol 0.5% (W/V)", "experimental": "Chronic Ocular Hypertension Models: 32 rabbits, half male and half female, were subjected to sub-conjunctive injection with 0.5 mg of dexamethasone under corneal limbus, once every other day, for consecutive 3 weeks, to obtain chronic ocular hypertension models, then randomly divided into physiological saline group, betaxolol group [0.5% (W/V)], puerarin hydrate group [1% (W/V)]. The maximum decrease of intraocular pressure was measured within 24 hours."}, "β receptor": {"test_system": "β receptor", "details": "cited from earlier work"}, "sudden deafness": {"test_system": "sudden deafness", "details": "injection, within 2 weeks after administration; cited from earlier work"}, "benzodiazepine receptor": {"test_system": "benzodiazepine receptor", "details": "cited from earlier work"}, "β2 receptor": {"target": "T1, β2 receptor (Cavia porcellus, UniProt Q8K4Z4)", "T1 construct": "trachea strip β2 receptor of guinea pigs; from tissue; host or cells: guinea pig trachea strip", "T1 sequence (Q8K4Z4 whole entry)": "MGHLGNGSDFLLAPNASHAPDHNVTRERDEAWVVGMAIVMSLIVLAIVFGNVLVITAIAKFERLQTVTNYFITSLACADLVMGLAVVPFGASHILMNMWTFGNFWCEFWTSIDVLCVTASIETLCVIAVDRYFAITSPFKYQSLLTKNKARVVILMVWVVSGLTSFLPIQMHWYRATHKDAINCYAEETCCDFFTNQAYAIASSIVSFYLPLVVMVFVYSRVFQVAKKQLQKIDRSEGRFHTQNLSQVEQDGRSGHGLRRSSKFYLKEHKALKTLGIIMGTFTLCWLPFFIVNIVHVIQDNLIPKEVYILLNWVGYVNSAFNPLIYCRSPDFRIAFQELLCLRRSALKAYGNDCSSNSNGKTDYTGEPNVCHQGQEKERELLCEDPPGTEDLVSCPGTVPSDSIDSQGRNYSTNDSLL", "details": "trachea strip of guinea pigs; cited from earlier work"}, "intraocular pressure": {"test_system": "intraocular pressure", "details": "ocular hypertension rabbit models induced by dexamethasone; cited from earlier work"}, "ethanol intake": {"test_system": "ethanol intake", "details": "rats, intraperitoneal injection; cited from earlier work"}, "blood pressure": {"test_system": "blood pressure", "details": "anesthetized dogs, injection; cited from earlier work"}, "β1 receptor": {"target": "T2, β1 receptor (Cavia porcellus, UniProt H0W3H1)", "T2 construct": "ex vivo atrial muscle β1 receptor of guinea pigs; from tissue; host or cells: guinea pig atrial muscle, ex vivo", "T2 sequence (H0W3H1 1-470)": "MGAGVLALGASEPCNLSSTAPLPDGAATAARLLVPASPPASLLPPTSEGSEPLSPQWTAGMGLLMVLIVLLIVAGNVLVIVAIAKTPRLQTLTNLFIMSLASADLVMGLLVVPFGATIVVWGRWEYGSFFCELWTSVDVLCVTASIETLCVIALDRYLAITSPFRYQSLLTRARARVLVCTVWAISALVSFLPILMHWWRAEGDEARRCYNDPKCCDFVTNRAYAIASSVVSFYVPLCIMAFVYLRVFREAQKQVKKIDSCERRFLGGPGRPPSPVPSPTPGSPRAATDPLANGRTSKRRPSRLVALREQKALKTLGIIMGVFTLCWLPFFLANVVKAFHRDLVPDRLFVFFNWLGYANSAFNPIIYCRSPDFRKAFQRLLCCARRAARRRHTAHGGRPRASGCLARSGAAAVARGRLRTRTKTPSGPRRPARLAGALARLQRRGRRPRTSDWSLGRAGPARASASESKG", "details": "ex vivo atrial muscle of guinea pigs; cited from earlier work"}, "[5]": {"test_system": "blood pressure and heart rate", "details": "conscious spontaneously hypertensive rats, intraperitoneal injection; cited from earlier work"}, "ACE": {"target": "T3, ACE (Rattus norvegicus, UniProt P47820)", "T3 construct": "from tissue; host or cells: blood serum of Wistar rats", "T3 sequence (P47820 36-1313)": "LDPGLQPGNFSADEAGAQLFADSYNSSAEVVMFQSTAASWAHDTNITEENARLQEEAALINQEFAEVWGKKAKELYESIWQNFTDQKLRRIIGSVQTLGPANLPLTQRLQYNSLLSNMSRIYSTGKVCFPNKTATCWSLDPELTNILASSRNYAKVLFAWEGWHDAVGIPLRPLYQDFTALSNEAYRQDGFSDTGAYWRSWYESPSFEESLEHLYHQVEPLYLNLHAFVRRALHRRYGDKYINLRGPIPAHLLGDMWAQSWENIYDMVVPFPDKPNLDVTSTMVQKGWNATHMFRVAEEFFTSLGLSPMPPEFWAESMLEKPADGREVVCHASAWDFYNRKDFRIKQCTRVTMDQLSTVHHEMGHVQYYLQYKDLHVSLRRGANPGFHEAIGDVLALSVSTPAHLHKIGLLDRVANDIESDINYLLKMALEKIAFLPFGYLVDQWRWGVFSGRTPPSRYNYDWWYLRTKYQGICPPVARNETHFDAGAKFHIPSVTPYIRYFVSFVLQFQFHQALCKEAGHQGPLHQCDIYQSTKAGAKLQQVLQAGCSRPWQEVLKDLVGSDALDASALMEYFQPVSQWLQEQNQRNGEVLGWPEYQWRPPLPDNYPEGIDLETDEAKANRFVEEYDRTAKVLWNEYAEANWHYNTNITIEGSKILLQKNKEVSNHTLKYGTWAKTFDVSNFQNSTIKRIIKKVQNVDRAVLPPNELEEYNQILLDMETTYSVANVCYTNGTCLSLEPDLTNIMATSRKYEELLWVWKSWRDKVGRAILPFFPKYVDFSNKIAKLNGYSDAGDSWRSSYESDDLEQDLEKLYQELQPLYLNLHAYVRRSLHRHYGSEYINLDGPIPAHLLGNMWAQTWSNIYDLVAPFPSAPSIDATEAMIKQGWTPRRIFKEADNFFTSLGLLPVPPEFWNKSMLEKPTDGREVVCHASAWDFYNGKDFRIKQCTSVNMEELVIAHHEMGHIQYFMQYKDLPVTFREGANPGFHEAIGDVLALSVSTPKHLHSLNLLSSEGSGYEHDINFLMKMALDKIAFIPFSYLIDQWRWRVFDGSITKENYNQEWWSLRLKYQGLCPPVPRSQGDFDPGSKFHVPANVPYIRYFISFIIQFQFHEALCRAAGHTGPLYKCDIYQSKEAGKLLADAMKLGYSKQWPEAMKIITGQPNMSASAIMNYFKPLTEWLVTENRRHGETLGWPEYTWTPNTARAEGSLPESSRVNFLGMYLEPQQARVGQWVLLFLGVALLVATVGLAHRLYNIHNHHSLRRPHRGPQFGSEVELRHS", "assay": "Effects on inhibiting ACE activity (rat blood serum after intraperitoneal injection)", "type": "in vivo, Wistar rats", "details": "rats, 200 mg/kg intraperitoneal", "experimental": "24 Wistar rats, 280-300 g, were randomly divided into 3 groups, 8 rats per group, one group was control group, other two groups were separately 100 mg/kg, 200 mg/kg dose groups (which was added with cosolvent to form an injectable solution), subjected to intraperitoneal injection, the control group was administered with physiological saline. 60 min after administration, the rats were anesthetized with 1% pentobarbital sodium, subjected to thoracotomy and blood sample was taken from heart, the blood sample stood at room temperature for 30 min, centrifuged under 3500 r/min at low temperature for 10 min, the supernatant was taken and stored at about −65° C., for test. Measurement of ACE activity: referring to document [WANG, Fumin, et al, Chinese Journal of Laboratory Medicine, 1983, 6(3):145-151], the results were subjected to statistical treatment: the results were expressed in x±S, and data were subjected to analysis of variance and t-test."}},
  "data": [
    {"smiles": "O=c1c(-c2ccc(O)cc2)coc2c([C@@H]3O[C@H](CO)[C@@H](O)[C@H](O)[C@H]3O)c(O)ccc12", "note": "[Anhydrous puerarin, reference compound]", "values": [
      {"measurement": "Sticking amount relative to puerarin monohydrate", "setting": "[1]", "result": "1-3 times"},
      {"measurement": "Hygroscopicity compared with the hydrate of the present invention", "setting": "[2]", "result": "much higher"},
      {"measurement": "In comparison with 0 h, weight gain, %", "setting": "[2]", "result": 4.26, "unit": "%"},
      {"measurement": "Increase of related substance, 6 month results compared to 0 month results", "setting": "[3]; accelerated test 40° C., compared with puerarin monohydrate", "result": "higher increase"}
    ]},
    {"smiles": "CC(C)NCC(O)COc1ccc(CCOCC2CC2)cc1", "note": "(stereo not shown) [Betaxolol, reference compound]", "values": [
      {"measurement": "Maximum decrease of intraocular pressure (mmHg)", "setting": "[4]", "result": 1.9, "unit": "mmHg"}
    ]},
    {"smiles": "O=c1c(-c2ccc(O)cc2)coc2c([C@@H]3O[C@H](CO)[C@@H](O)[C@H](O)[C@H]3O)c(O)ccc12", "note": "[Puerarin, 8-β-D-glucopyranosyl-4′,7-dihydroxylisoflavone]", "values": [
      {"measurement": "Effect on activation function of adrenalin on adenylate cyclase", "setting": "β receptor", "result": "completely inhibit"},
      {"measurement": "Patients with good state of nail fold microcirculation and improved audition", "setting": "sudden deafness", "result": 70, "unit": "%"},
      {"measurement": "Activity at benzodiazepine receptor", "setting": "benzodiazepine receptor", "result": "antagonist or partial agonist"},
      {"measurement": "Action on β2 receptor", "setting": "β2 receptor", "result": "relatively great concentration is required"},
      {"measurement": "Intraocular pressure", "setting": "intraocular pressure", "result": "reduce"},
      {"measurement": "Ethanol intake", "setting": "ethanol intake", "result": "significantly reduce"},
      {"measurement": "Blood pressure", "setting": "blood pressure", "result": "rapid dose-dependent decrease"},
      {"measurement": "Action on β1 receptor", "setting": "β1 receptor", "result": "significant antagonistic action"},
      {"measurement": "Blood pressure and heart rate", "setting": "[5]", "result": "significantly reduce"}
    ]},
    {"smiles": "O=c1c(-c2ccc(O)cc2)coc2c([C@@H]3O[C@H](CO)[C@@H](O)[C@H](O)[C@H]3O)c(O)ccc12", "note": "[Sample 2, puerarin monohydrate]", "values": [
      {"measurement": "Maximum decrease of intraocular pressure (mmHg)", "setting": "[4]; monohydrate", "result": 2.4, "unit": "mmHg"}
    ]},
    {"smiles": "O=c1c(-c2ccc(O)cc2)coc2c([C@@H]3O[C@H](CO)[C@@H](O)[C@H](O)[C@H]3O)c(O)ccc12", "note": "[Sample 3, puerarin monohydrate]", "values": [
      {"measurement": "inhibition at 200 mg/kg", "setting": "ACE; rat, ip, vs control group, read-out: inhibition rate (%)", "result": 51, "unit": "%"},
      {"measurement": "ACE (IU)", "setting": "ACE; blood taken 60 min after administration", "result": "26.7 ± 6.35", "unit": "IU"}
    ]},
    {"smiles": "O.O=c1c(-c2ccc(O)cc2)coc2c([C@@H]3O[C@H](CO)[C@@H](O)[C@H](O)[C@H]3O)c(O)ccc12.O=c1c(-c2ccc(O)cc2)coc2c([C@@H]3O[C@H](CO)[C@@H](O)[C@H](O)[C@H]3O)c(O)ccc12", "note": "[Sample 5, puerarin 0.5 hydrate]", "values": [
      {"measurement": "In comparison with 0 h, weight gain, %", "setting": "[2]", "result": 1.51, "unit": "%"},
      {"measurement": "Marked content (%)", "setting": "[3]; sampling time 0 month", "result": 99.1, "unit": "%"},
      {"measurement": "Property", "setting": "[3]; sampling time 0 month", "result": "off-white powder"},
      {"measurement": "Related substance (%)", "setting": "[3]; sampling time 0 month", "result": "<2", "unit": "%"},
      {"measurement": "Marked content (%)", "setting": "[3]; sampling time 1 month", "result": 99.2, "unit": "%"},
      {"measurement": "Property", "setting": "[3]; sampling time 1 month", "result": "off-white powder"},
      {"measurement": "Related substance (%)", "setting": "[3]; sampling time 1 month", "result": "<2", "unit": "%"},
      {"measurement": "Marked content (%)", "setting": "[3]; sampling time 2 month", "result": 99.2, "unit": "%"},
      {"measurement": "Property", "setting": "[3]; sampling time 2 month", "result": "off-white powder"},
      {"measurement": "Related substance (%)", "setting": "[3]; sampling time 2 month", "result": "<2", "unit": "%"},
      {"measurement": "Marked content (%)", "setting": "[3]; sampling time 3 month", "result": 99.0, "unit": "%"},
      {"measurement": "Property", "setting": "[3]; sampling time 3 month", "result": "off-white powder"},
      {"measurement": "Related substance (%)", "setting": "[3]; sampling time 3 month", "result": "<2", "unit": "%"},
      {"measurement": "Marked content (%)", "setting": "[3]; sampling time 6 month", "result": 98.9, "unit": "%"},
      {"measurement": "Property", "setting": "[3]; sampling time 6 month", "result": "off-white powder"},
      {"measurement": "Related substance (%)", "setting": "[3]; sampling time 6 month", "result": "<2", "unit": "%"},
      {"measurement": "Maximum decrease of intraocular pressure (mmHg)", "setting": "[4]", "result": 2.5, "unit": "mmHg"}
    ]}
  ]
}
